Structures can show the parent of a compound that is named as a salt.

The target in the assay is RIPK1 (recombinant GST-RIPK1 kinase domain, residues 1-327) (Homo sapiens (Human), UniProt Q13546). Nature of the assay: RIPK1-ADP-Glo Enzymatic Assay. It is filed as biochemical. Particulars: ADP-Glo; 25 nM GST-RIPK1, 300 μM ATP; assay lower limit ~25 nM; read-out: RIPK1 V0 Ec50. In short, it runs like this: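 Inhibition of ADP formation was measured after compound and enzyme (25 nM) were pre-incubated for 30 minutes at ambient temperature and the kinase reaction ran for 150 minutes at 300 μM ATP with dephosphorylated MBP substrate. EC50 values come from ten-point curves fitted non-linearly.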
Sequence of RIPK1 (recombinant GST-RIPK1 kinase domain, residues 1-327) (Q13546 1-327): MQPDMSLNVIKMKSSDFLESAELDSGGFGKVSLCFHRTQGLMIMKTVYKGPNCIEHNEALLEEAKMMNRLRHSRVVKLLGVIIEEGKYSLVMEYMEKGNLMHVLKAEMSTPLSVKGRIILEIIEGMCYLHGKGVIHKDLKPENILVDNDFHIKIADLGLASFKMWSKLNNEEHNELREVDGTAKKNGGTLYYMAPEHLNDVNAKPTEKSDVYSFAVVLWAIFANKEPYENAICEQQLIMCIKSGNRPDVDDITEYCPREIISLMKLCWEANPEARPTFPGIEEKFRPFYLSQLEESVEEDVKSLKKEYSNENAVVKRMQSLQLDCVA

For orientation: EC50 means the concentration needed to bring the measured effect to its halfway point. As for `CC1(NC(=O)c2nc(N3CCC4(CC3)O[C@@H]3CC[C@@H](c5cc(F)cc(F)c5)N3C4=O)ncc2F)CC1` [Example 7.11, 2-[(5′S,7a′R)-5′-(3,5-difluorophenyl)-3′-oxotetrahydro-1H,3′H-spiro[piperidine-4,2′-pyrrolo[2,1-b][1,3]oxazol]-1-yl]-5-fluoro-N-(1-methyl-cyclopropyl)pyrimidine-4-carboxamide], the EC50 is 92.2 nM.
The same measure for `O=C1N2[C@@H](CC[C@H]2c2ccccc2)OC12CN(c1cccc3ncnn13)C2` [Example 13.22, (5′S,7a′R)-1-([1,2,4]triazolo[1,5-a]pyridin-5-yl)-5′-phenyltetrahydro-3′H-spiro[azetidine-3,2′-pyrrolo[2,1-b]oxazol]-3′-one, TFA salt]: 37.6 nM; for `N#Cc1ccc(N2CCC3(CC2)O[C@@H]2CC[C@@H](c4cc(F)cc(F)c4)N2C3=O)cc1F` [Example 4.18, 4-[(5′S,7a′R)-5′-(3,5-difluorophenyl)-3′-oxotetrahydro-1H,3′H-spiro[piperidine-4,2′-pyrrolo[2,1-b] [1,3]oxazol]-1-yl]-2-fluorobenzonitrile]: below 25 nM; for `Cc1ncc([C@@H]2CC[C@H]3OC4(CCN(c5ccnc6ccnn56)CC4)C(=O)N32)cc1F` [Example 4.89, (5′S,7a′R)-5′-(5-fluoro-6-methylpyridin-3-yl)-1-(pyrazolo[1,5-a]pyrimidin-7-yl)tetrahydro-3′H-spiro[piperidine-4,2′-pyrrolo[2,1-b]oxazol]-3′-one]: 29.4 nM.
The same measure for `COC(=O)c1cnc(N2CCC3(CC2)O[C@@H]2CC[C@@H](c4ccccc4)N2C3=O)nc1` [Example 4.194, methyl 2-[(5′S,7a′R)-3′-oxo-5′-phenyltetrahydro-1H,3′H-spiro[piperidine-4,2′-pyrrolo[2,1-b] [1,3]oxazol]-1-yl]pyrimidine-5-carboxylate]: 699 nM; for `O=C1N2[C@@H](CC[C@H]2c2cc(F)cc(F)c2)OC12CCN(c1ncc(C3CC3)cn1)CC2` [Example 4.56, (5′S,7a′R)-1-(5-cyclopropylpyrimidin-2-yl)-5′-(3,5-difluorophenyl)tetrahydro-3′H-spiro[piperidine-4,2′-pyrrolo[2,1-b] [1,3]oxazol]-3′-one]: 565 nM; for `CC1CC2(CCN1c1ccnc3ccnn13)O[C@@H]1CC[C@@H](c3ccccc3)N1C2=O` (stereo partly drawn) [Example 4.247, (4R,5′S,7a′R)-2-methyl-5′-phenyl-1-(pyrazolo[1,5-a]pyrimidin-7-yl)tetrahydro-3′H-spiro[piperidine-4,2′-pyrrolo[2,1-b] [1,3]oxazol]-3′-one]: 86.5 nM.
Take `N#Cc1cc(F)cc([C@@H]2CC[C@H]3OC4(CCN(c5ccnc6c(F)cnn56)CC4)C(=O)N32)c1` [Example 4.121, 3-fluoro-5-[(5′S,7a′R)-1-(3-fluoropyrazolo[1,5-a]pyrimidin-7-yl)-3′-oxotetrahydro-3′H-spiro[piperidine-4,2′-pyrrolo[2,1-b] [1,3]oxazol]-5′-yl]benzonitrile]: the half-maximal effective concentration (EC50) is below 25 nM.
To `O=C(c1c(F)cc(F)cc1F)N1CCC2(CC1)O[C@@H]1CC[C@@H](c3cc(F)cc(F)c3)N1C2=O` [Example 5.2, (5′S,7a′R)-5′-(3,5-difluoro-phenyl)-1-(2,4,6-trifluoro-benzene-1-carbonyl)tetra-hydro-3′H-spiro[piperi-dine-4,2′-pyrrolo[2,1-b] [1,3]oxazol]-3′-one] belongs below 25 nM; to `O=C(c1cnc2snnc2c1)N1CCC2(CC1)O[C@@H]1CC[C@@H](c3cc(F)cc(F)c3)N1C2=O` [Example 6.46, (5′S,7a′R)-5′-(3,5-difluorophenyl)-1-([1,2,3]thiadiazolo-[5,4-b]pyridine-6-carbonyl)tetrahydro-3′H-spiro[piperidine-4,2′-pyrrolo[2,1-b] [1,3]oxazol]-3′-one], 211 nM.
As to `O=C(c1ccon1)N1CCC2(CC1)O[C@@H]1CC[C@@H](c3cc(F)cc(F)c3)N1C2=O` [Example 5.45], the concentration for a half-maximal effect (EC50) turned out to be 31 nM.
The same measure for `CC(C)OC(=O)c1ccc(N2CCC3(CC2)O[C@@H]2CC[C@@H](c4ccccc4)N2C3=O)nc1` [Example 4.190, propan-2-yl 6-[(5′S,7a′R)-3′-oxo-5′-phenyltetrahydro-1H,3′H-spiro[piperidine-4,2′-pyrrolo[2,1-b] [1,3]oxazol]-1-yl]pyridine-3-carboxylate]: 92.6 nM; for `O=C1N2[C@@H](CC[C@H]2c2ccccc2)OC12CCN(c1cc(-c3ccsc3)ccn1)CC2` [Example 4.170, (5′S,7a′R)-5′-phenyl-1-[4-(thiophen-3-yl)pyridin-2-yl]tetrahydro-3′H-spiro[piperidine-4,2′-pyrrolo[2,1-b] [1,3]oxazol]-3′-one]: below 25 nM; for `O=C1N2[C@@H](CC[C@H]2c2ccccc2F)OC12CN(c1cc(-c3ccccc3)no1)C2` [Example 11.35, (5′S,7a′R)-5′-(2-fluorophenyl)-1-(3-phenyl-1,2-oxazol-5-yl)tetrahydro-3′H-spiro[azetidine-3,2′-pyrrolo[2,1-b][1,3]oxazol]-3′-one]: 34.5 nM.
The same measure for `Cc1nccn1-c1cc(N2CCC3(CC2)O[C@@H]2CC[C@@H](c4ccccc4)N2C3=O)ncn1` [Example 4.175, (5′S,7a′R)-1-[6-(2-methyl-1H-imidazol-1-yl)pyrimidin-4-yl]-5′-phenyltetrahydro-3′H-spiro[piperidine-4,2′-pyrrolo[2,1-b] [1,3]oxazol]-3′-one]: below 25 nM; for `O=C1N2[C@H](OC13CCN(c1ccnc4c(F)cnn14)CC3)[C@@H](F)C[C@H]2c1ccccc1` [Example 9.1, (5′S,7′S,7a′R)-7′-Fluoro-1-(3-fluoropyrazolo[1,5-a]pyrimidin-7-yl)-5′-phenyltetrahydro-3′H-spiro[piperidine-4,2′-pyrrolo[2,1-b]oxazol]-3′-one]: below 25 nM; for `O=C(c1c(F)cc(F)cc1F)N1CCC2(CC1)O[C@@H]1CC[C@@H](c3ccccc3)N1C2=O` [Example 5.8, (5′S,7a′R)-5′-phenyl-1-(2,4,6-trifluorobenzene-1-carbonyl)tetrahydro-3′H-spiro[piperidine-4,2′-pyrrolo[2,1-b][1,3]oxazol]-3′-one]: below 25 nM.
`O=C1N2[C@@H](CC[C@H]2c2cc(F)cc(F)c2)OC12CCN(c1cccc3ccnn13)CC2` [Example 15.2, (5′S,7a′R)-5′-(3,5-difluorophenyl)-1-(pyrazolo[1,5-a]pyridin-7-yl)tetrahydro-3′H-spiro[piperidine-4,2′-pyrrolo[2,1-b]oxazol]-3′-one, TFA]: the concentration for a half-maximal effect (EC50) is below 25 nM.
To `O=C(c1cc2ccccn2c1)N1CCC2(CC1)O[C@@H]1CC[C@@H](c3cc(F)cc(F)c3)N1C2=O` [Example 5.73, (5′S,7a′R)-5′-(3,5-difluoro-phenyl)-1-(indolizine-2-carbonyl)tetrahydro-3′H-spiro[piperidine-4,2′-pyrrolo[2,1-b]oxazol]-3′-one] belongs below 25 nM; to `N#Cc1cncc([C@@H]2CC[C@H]3SC4(CCN(c5ccnc6c(F)cnn56)CC4)C(=O)N32)c1` [Example 4.112, 5-[(5′S,7a′R)-1-(3-fluoropyrazolo[1,5-a]pyrimidin-7-yl)-3′-oxotetrahydro-3′H-spiro[piperidine-4,2′-pyrrolo[2,1-b] [1,3]thiazol]-5′-yl]pyridine-3-carbonitrile], below 25 nM.

The values are drawn from US12180226B2, “Spirotricycle RIPK1 inhibitors and methods of uses thereof” (Merck Sharp & Dohme LLC, priority 2021, dated 2024).
